Results on one compound are retold here after ChEMBL document CHEMBL5726651, “Alkyne compounds for treatment of complement mediated disorders” (2017).

As a reminder, the pIC50 is −log10 of the IC50, conventionally taken in molar units.

pIC50: −log10 of the molar value.

The test concerns the target Complement factor D (Homo sapiens, UniProt P00746). Description: Inhibition Assay: Human factor D (purified from human serum, Complement Technology, Inc.) at 80 nM final concentration is incubated with test compound at various concentrations for 5 minutes at room temperature in 50 mM Tris, 1M NaCl, pH 7.5. A synthetic substrate Z-L-Lys-SBzl and DTNB (Ellman's reagent) are added to final concentrations of 100 μM each. The increase in color is recorded at OD405 nm in a microplate in kinetic mode over 30 minutes with 30 second time points in a […]. IC50 values are calculated by non-linear regression from the percentage of inhibition of complement factor D activity as a function of test compound concentration.

Sequence of Complement factor D (P00746 whole entry): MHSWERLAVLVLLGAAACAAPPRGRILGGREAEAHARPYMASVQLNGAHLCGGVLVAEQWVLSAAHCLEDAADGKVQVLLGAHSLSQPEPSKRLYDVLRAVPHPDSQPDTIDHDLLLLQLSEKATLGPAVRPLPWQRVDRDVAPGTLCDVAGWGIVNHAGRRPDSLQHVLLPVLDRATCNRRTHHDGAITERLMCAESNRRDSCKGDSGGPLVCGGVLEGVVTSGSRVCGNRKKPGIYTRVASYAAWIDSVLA

Take `NC(=O)c1nn(CC(=O)N2C[C@H](F)C[C@H]2C(=O)Nc2cncc(Br)n2)c2ccc(C#Cc3ncc(F)cn3)cc12`: the pIC50 was over 6.00.
